{"source": "patent US6566304B1", "about": "“Biogenic control and limitation of the reproduction of parasitic earth nematodes in stock culture” (priority 1998, dated 2003)", "assay_type_in_all_cases": "in vivo", "key": {"sugar beet": {"tested_on": "sugar beet", "experiment": "Example 3 pot test with sugar beet: plant growth", "method": "(§1) Sugar beet was pregerminated in a temperature-controlled (18° C.) greenhouse and, at the two-leaf stage, the plants were each transplanted in a plastic pot (9×9 cm) filled with 500 g of a mixture of field soil and sand (1:1). The test substances were applied 2 days after transplanting. One day later, each pot was inoculated with 500 larvae of the nematode Heterodera schachtii. 6 Weeks later, the test was terminated and the density of the nematodes and also the shoot and root weights of the plants were determined.\n(§2) The following variants (with 10 repetitions each) were selected for the tests:\n(§3) fertilized control (quantity of N/P corresponds to 40 g/m^2 TerraPy G)\n(§4) control treated with nematicide (Aldicarb, 1 ppm)"}, "[1]": {"tested_on": "nematode Heterodera schachtii", "experiment": "Example 3 pot test with sugar beet: nematode cysts on roots", "conditions": "Example 3, sugar beet, 6 weeks; comparators: Aldicarb 1 ppm; fertilized control N/P corresponds to 40 g/m^2 TerraPy G", "method": "as §1, §2, §3, §4"}, "[2]": {"tested_on": "microorganisms (bacteria per g of soil)", "experiment": "Example 3 pot test with sugar beet: soil microorganisms"}, "tomatoes [3]": {"tested_on": "tomatoes", "experiment": "Example 4 pot test with tomatoes: plant growth", "method": "(§5) Tomatoes were pregerminated in a temperature-controlled (18° C.) greenhouse and, at the two-leaf stage, the plants were each transplanted in a plastic pot (9×9 cm) filled with 500 g of a mixture of field soil and sand (1:1). The test substances were applied 2 days after transplanting. One day later, each pot was inoculated with 1,000 larvae of the nematode Meloidogyne incognita. 8 Weeks later, the test was terminated and the density of the nematodes and also the shoot and root weights of the plants were determined.\nas §2\n(§6) fertilized control (quantity of N/P corresponds to 40 g/m^2 TerraPy B)\nas §4"}, "[4]": {"tested_on": "nematode Meloidogyne incognita", "experiment": "Example 4 pot test with tomatoes: gall index of root system", "conditions": "Example 4, tomatoes, 8 weeks; scale 1 to 10 (1=undamaged, 10=completely damaged root system); comparators: Aldicarb 1 ppm; fertilized control N/P corresponds to 40 g/m^2 TerraPy B", "method": "as §5, §2, §6, §4\n(§7) The gall index is a measure of the damage caused to the root system by the nematodes and is basically a scale of 1 to 10 where 1=undamaged and 10=completely damaged root system."}, "[5]": {"tested_on": "microorganisms (bacteria per g of soil)", "experiment": "Example 4 pot test with tomatoes: soil microorganisms", "method": "as §5, §2, §6, §4"}, "tomatoes [6]": {"tested_on": "tomatoes", "experiment": "Example 5 pot test with tomatoes: plant growth", "conditions": "Example 5, tomatoes, 1,000 M. incognita larvae per pot, 8 weeks; comparators: Aldicarb 1 ppm; fertilized control N/P corresponds to 40 g/m^2 TerraPy B", "method": "as §5\n(§8) The following variants (with 8 repetitions each) were selected for the tests:\nas §6, §4\n(§9) The object of this test was to investigate the smaller effective dose of the product."}, "[7]": {"tested_on": "nematode Meloidogyne incognita", "experiment": "Example 5 pot test with tomatoes: gall index of root system", "conditions": "Example 5, tomatoes, 8 weeks; scale 1 to 10; comparators: Aldicarb 1 ppm; fertilized control N/P corresponds to 40 g/m^2 TerraPy B", "method": "as §7, §5, §8, §6, §4, §9"}, "[8]": {"tested_on": "microorganisms (bacteria per g of soil)", "experiment": "Example 5 pot test with tomatoes: soil microorganisms", "method": "as §5, §8, §6, §4, §9"}, "tomatoes [9]": {"tested_on": "tomatoes", "experiment": "Example 6 pot test with tomatoes, reduction of nematicides: plant growth", "method": "(§10) Tomatoes were pregerminated in a temperature-controlled (18° C.) greenhouse and, at the two-leaf stage, the plants were each transplanted in a plastic pot (9×9 cm) filled with 500 g of a mixture of field soil and sand (1:1). The test substances were applied 2 days after transplanting. One day later, each pot was inoculated with 1,000 larvae of the nematode Meloidogyne incognita. 6 Weeks later, the test was terminated and the density of the nematodes and also the shoot and root weights of the plants were determined.\n(§11) The following variants (with 10 repetitions each) were selected for the tests: fertilized control (quantity of N/P corresponds to 40 g/m^2 TerraPy B) control treated with nematicide (Aldicarb, 1 ppm)\n(§12) TerraPy B 20 g/m^2 plus Aldicarb 0.1 ppm\n(§13) In addition, pots with all the variants mentioned above which had not been inoculated with nematodes were included in the tests."}, "[10]": {"tested_on": "nematode Meloidogyne incognita", "experiment": "Example 6 pot test with tomatoes, reduction of nematicides: gall index", "conditions": "Example 6, tomatoes, 6 weeks; Aldicarb 1 ppm; fertilized control N/P corresponds to 40 g/m^2 TerraPy B; TerraPy B 20 g/m^2; TerraPy B 20 g/m^2 plus Aldicarb 0.1 ppm", "method": "as §7, §10, §11, §12, §13"}, "tomatoes [11]": {"tested_on": "tomatoes", "experiment": "Example 7 pot test with tomatoes, combination with mycorrhiza: plant growth", "conditions": "Example 7, tomatoes, 1,500 M. incognita larvae per pot, 9 weeks; Aldicarb 1 ppm; fertilized control N/P corresponds to 2 g/m^2 TerraPy B; TerraPy B 2 g/m^2; mycorrhiza 0.2%", "method": "(§14) Tomato seeds were planted in plastic pots (9×9 cm) each filled with 320 g of a mixture of field soil and sand (1:1) in a temperature-controlled greenhouse (18° C.). The test substances were applied 29 days after emergence. Two days later, each pot was inoculated with 1,500 larvae of the nematode Meloidogyne incognita. 9 Weeks later, the test was terminated and the density of the nematodes and the shoot and root weights of the plants were determined.\nas §2\n(§15) fertilized control (quantity of N/P corresponds to 2 g/m^2 TerraPy B)\n(§16) nematicide-treated control (Aldicarb, 1 ppm)\n(§17) mycorrhiza fungus mixture 0.2%\n(§18) TerraPy B 2 g/m^2 plus mycorrhiza 0.2%\n(§19) The mycorrhiza fungus mixture contained a mixed population of various Glomus strains of the species Glomus sclerocystis and G. gigasporum with 950 infectious units per cm^3 (=0.64 g per pot). The mixture was mixed with the pot soil after dilution to 0.2% at the beginning of the test."}, "[12]": {"tested_on": "nematode Meloidogyne incognita", "experiment": "Example 7 pot test with tomatoes, combination with mycorrhiza: galls on root system", "conditions": "Aldicarb 1 ppm, fertilized control N/P corresponds to 2 g/m^2 TerraPy B, TerraPy B 2 g/m^2, mycorrhiza 0.2%", "method": "as §14, §2, §15, §16, §17, §18, §19"}, "[13]": {"conditions": "2 days, comparators: Aldicarb 1 ppm, fertilized control"}, "[14]": {"conditions": "14 days, comparators: Aldicarb 1 ppm, fertilized control"}, "[15]": {"conditions": "56 days, comparators: Aldicarb 1 ppm, fertilized control"}, "[16]": {"conditions": "Example 4, tomatoes, 8 weeks, comparators: Aldicarb 1 ppm, fertilized control N/P corresponds to 40 g/m^2 TerraPy B"}}}
{"molecule": "CNC(=O)O/N=C/C(C)(C)SC", "note": "[Aldicarb]", "values": [{"measurement": "plant growth / plant weight, in words", "setting": "sugar beet; Example 3, sugar beet pot test", "value": "not effective in increasing plant weight"}, {"measurement": "Root weight", "setting": "sugar beet; Example 3, sugar beet, 6 weeks, comparators: Aldicarb 1 ppm, fertilized control N/P corresponds to 40 g/m^2 TerraPy G", "value": 0.7, "unit": "g"}, {"measurement": "Shoot weight", "setting": "sugar beet; Example 3, sugar beet, 500 H. schachtii larvae per pot, 6 weeks, comparators: Aldicarb 1 ppm, fertilized control N/P corresponds to 40 g/m^2 TerraPy G", "value": 2.1, "unit": "g"}, {"measurement": "Nematode cysts per g root weight", "setting": "[1]", "value": 15, "unit": "per g root weight"}, {"measurement": "effect on bacteria / microorganisms, in words", "setting": "[2]", "value": "harmful effect"}, {"measurement": "bacteria per g of soil, 2 Days after application", "setting": "[2]; [13]", "value": "7 × 10^6 bacteria per g of soil"}, {"measurement": "bacteria per g of soil, 14 Days after application", "setting": "[2]; [14]", "value": "8 × 10^6 bacteria per g of soil"}, {"measurement": "bacteria per g of soil, 56 Days after application", "setting": "[2]; [15]", "value": "1 × 10^7 bacteria per g of soil"}, {"measurement": "plant growth / plant weight, in words", "setting": "tomatoes [3]; Example 4, tomato pot test", "value": "not effective in increasing plant weight"}, {"measurement": "Root length in cm", "setting": "tomatoes [3]; [16]", "value": 12.0, "unit": "cm"}, {"measurement": "Root weight", "setting": "tomatoes [3]; [16]", "value": 1.5, "unit": "g"}, {"measurement": "Shoot weight", "setting": "tomatoes [3]; Example 4, tomatoes, 1,000 M. incognita larvae per pot, 8 weeks, comparators: Aldicarb 1 ppm, fertilized control N/P corresponds to 40 g/m^2 TerraPy B", "value": 4.7, "unit": "g"}, {"measurement": "Gall index", "setting": "[4]", "value": 3.9}, {"measurement": "effect on bacteria / microorganisms, in words", "setting": "[5]", "value": "harmful effect"}, {"measurement": "bacteria per g of soil, 2 Days after application", "setting": "[5]; [13]", "value": "1 × 10^7 bacteria per g of soil"}, {"measurement": "bacteria per g of soil, 14 Days after application", "setting": "[5]; [14]", "value": "4 × 10^7 bacteria per g of soil"}, {"measurement": "bacteria per g of soil, 56 Days after application", "setting": "[5]; [15]", "value": "1 × 10^6 bacteria per g of soil"}, {"measurement": "Shoot weight", "setting": "tomatoes [6]", "value": 4.2, "unit": "g"}, {"measurement": "Gall index", "setting": "[7]", "value": 4.2}, {"measurement": "effect on bacteria / microorganisms, in words", "setting": "[8]", "value": "harmful effect"}, {"measurement": "bacteria per g of soil, 2 Days after application", "setting": "[8]; [13]", "value": "6 × 10^6 bacteria per g of soil"}, {"measurement": "bacteria per g of soil, 14 Days after application", "setting": "[8]; [14]", "value": "1 × 10^6 bacteria per g of soil"}, {"measurement": "bacteria per g of soil, 56 Days after application", "setting": "[8]; [15]", "value": "5 × 10^5 bacteria per g of soil"}, {"measurement": "plant growth / plant weight, in words", "setting": "tomatoes [9]; Example 6, tomato pot test", "value": "completely ineffective"}, {"measurement": "Root weight", "setting": "tomatoes [9]; Example 6, tomatoes, 6 weeks, Aldicarb 1 ppm, fertilized control N/P corresponds to 40 g/m^2 TerraPy B, TerraPy B 20 g/m^2, TerraPy B 20 g/m^2 plus Aldicarb 0.1 ppm", "value": 1.8, "unit": "g"}, {"measurement": "Shoot weight", "setting": "tomatoes [9]; Example 6, tomatoes, 1,000 M. incognita larvae per pot, 6 weeks, Aldicarb 1 ppm, fertilized control N/P corresponds to 40 g/m^2 TerraPy B, TerraPy B 20 g/m^2, TerraPy B 20 g/m^2 plus Aldicarb 0.1 ppm", "value": 3, "unit": "g"}, {"measurement": "Gall index", "setting": "[10]", "value": 0.5}, {"measurement": "Shoot weight", "setting": "tomatoes [11]", "value": 4.2, "unit": "g"}, {"measurement": "Number of galls per root system", "setting": "[12]; Example 7, tomatoes, 9 weeks", "value": 22}, {"measurement": "Number of galls per root system, In percent", "setting": "[12]; Example 7, unfertilized untreated control = 100%", "value": 19, "unit": "%"}]}
